Consider 37 molecules from patent US9624175B2, “Fused-bicyclic aryl quinolinone derivatives as mutant-isocitrate dehydrogenase inhibitors” (Forma Therapeutics, Inc., priority 2015, dated 2017).

Broadly, the IC50 is the midpoint of a concentration-inhibition curve.

The structures appear in SMILES notation.

In this test the target is IDH1-R132H recombinant protein (Homo sapiens (Human), UniProt O75874, R132H). The test is described as follows: IDH1-R132H enzymatic assay (NADPH consumption, diaphorase/resazurin readout). In kind it is biochemical. The settings on record: inhibition of NADPH consumption, 30 nM IDH1-R132H; read-out: Enzyme IDH1 R132H IC50. The protocol: Assays were performed in a 384-well black plate. An aliquot of 250 nL of compound was incubated with 10 μL of 30 nM IDH1-R132H or 10 nM IDH1-R132C recombinant protein in assay buffer (50 mM Tris pH=7.5, 150 mM NaCl, 5 mM MgCl2, 0.1% (w/v) Bovine Serum Albumin, and 0.01% Triton X-100) in each well at 25° C. for 15 minutes. After the plate was centrifuged briefly, an aliquot of 10 μL of 2 mM α-ketoglutarate and 20 μM NADPH solution prepared in assay buffer was then added to each well and the reaction was maintained at 25° C. for 45 minutes. An aliquot of 10 μL of diaphorase solution (0.15 U/mL diaphorase and 30 μM Resazurin in assay buffer) was added to each well. The plate was maintained at 25° C. for 15 minutes and then read on a plate reader with excitation and emission wavelengths at 535 nm and 590 nm, respectively. The IC50 of a given compound was calculated by fitting the dose response curve of inhibition of NADPH consumption at a given concentration with the four parameter logistic equation.
(In general: Alamar Blue is a resazurin reagent that responds to reducing activity.)

Chain of IDH1-R132H recombinant protein (O75874 whole entry R132H): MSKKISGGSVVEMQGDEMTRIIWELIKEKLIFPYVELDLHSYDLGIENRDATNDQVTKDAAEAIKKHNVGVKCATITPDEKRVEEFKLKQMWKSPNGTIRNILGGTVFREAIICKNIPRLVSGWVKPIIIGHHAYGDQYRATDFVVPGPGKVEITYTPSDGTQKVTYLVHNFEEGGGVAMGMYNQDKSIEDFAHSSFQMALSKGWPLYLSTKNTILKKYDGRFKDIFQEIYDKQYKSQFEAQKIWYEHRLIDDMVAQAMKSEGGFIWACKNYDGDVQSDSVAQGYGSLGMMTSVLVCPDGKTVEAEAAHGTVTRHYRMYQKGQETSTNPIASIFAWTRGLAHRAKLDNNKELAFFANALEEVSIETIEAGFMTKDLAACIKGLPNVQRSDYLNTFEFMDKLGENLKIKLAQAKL

For `Cn1c(=O)oc2ccc(NCc3cc4cc(Cl)ccc4[nH]c3=O)cc21` [Compound I-2, 6-chloro-3-{[(3-methyl-2-oxo-2,3-dihydro-1,3-benzoxazol-5-yl)amino]methyl}-1,2-dihydroquinolin-2-one], the IC50 was in the range of 0.1 to 1 µM.

As to `O=c1[nH]c2cc(NCc3cc4cc(Cl)ccc4[nH]c3=O)ccc2o1` [Compound I-3, 6-chloro-3-{[(2-oxo-2,3-dihydro-1,3-benzoxazol-5-yl)amino]methyl}-1,2-dihydroquinolin-2-one], the IC50 was 0.1 to 1 µM.

Regarding `CN1C(=O)CCc2cc(NCc3cc4cc(Cl)ccc4[nH]c3=O)ccc21` [Compound I-5, 6-chloro-3-{[(1-methyl-2-oxo-1,2,3,4-tetrahydroquinolin-6-yl)amino]methyl}-1,2-dihydroquinolin-2-one], the half-maximal inhibitory concentration (IC50) lay within 0.1 to 1 µM.

In the case of `O=c1[nH]c2ccc(Cl)cc2cc1CNc1cc2ccccc2cn1` [Compound I-6, 6-chloro-3-{[(isoquinolin-3-yl)amino]methyl}-1,2-dihydroquinolin-2-one], the 50% inhibitory concentration (IC50) lay within 1 to 10 µM.

With `N#Cc1ccc(NCc2cc3cc(Cl)ccc3[nH]c2=O)c2ccccc12` [Compound I-7, 4-{[(6-chloro-2-oxo-1,2-dihydroquinolin-3-yl)methyl]amino}naphthalene-1-carbonitrile], the half-maximal inhibitory concentration (IC50) lay within 1 to 10 µM.

On to `O=c1[nH]c2ccc(Cl)cc2cc1CNc1cccc2cccnc12` [Compound I-8, 6-chloro-3-{[(quinolin-8-yl)amino]methyl}-1,2-dihydroquinolin-2-one], for which the IC50 was 1 to 10 µM.

Turning to `O=c1[nH]c2ccc(Cl)cc2cc1CNc1cccc2c1OCC2` [Compound I-9, 6-chloro-3-{[(2,3-dihydro-1-benzofuran-7-yl)amino]methyl}-1,2-dihydroquinolin-2-one], the half-inhibitory concentration (IC50) lay within 1 to 10 µM.

Consider `CN1C(=O)COc2cc(NCc3cc4cc(Cl)ccc4[nH]c3=O)ccc21` [Compound I-10, 7-{[(6-chloro-2-oxo-1,2-dihydroquinolin-3-yl)methyl]amino}-4-methyl-3,4-dihydro-2H-1,4-benzoxazin-3-one], for which the IC50 lay in the range of 1 to 10 µM.

As to `O=C1COc2cc(NCc3cc4cc(Cl)ccc4[nH]c3=O)ccc2N1` [Compound I-11, 7-{[(6-chloro-2-oxo-1,2-dihydroquinolin-3-yl)methyl]amino}-3,4-dihydro-2H-1,4-benzoxazin-3-one], the IC50 fell in the range of 1 to 10 µM.

Consider `COc1cc2cc(CNc3ccc4[nH]c(-c5ccc6[nH]cnc6c5)nc4c3)c(=O)[nH]c2cc1OC` [Compound I-12, 3-({[2-(1H-1,3-benzodiazol-5-yl)-1H-1,3-benzodiazol-5-yl]amino}methyl)-6,7-dimethoxy-1,2-dihydroquinolin-2-one], for which the IC50 was over 10 µM.

On to `O=C1Cc2ccc(NCc3cc4cc(Cl)ccc4[nH]c3=O)cc2N1` [Compound I-13, 6-chloro-3-{[(2-oxo-2,3-dihydro-1H-indol-6-yl)amino]methyl}-1,2-dihydroquinolin-2-one], for which the IC50 is over 10 µM.

Turning to `Cn1c(=O)oc2cc(NCc3cc4cc(Cl)ccc4[nH]c3=O)ccc21` [Compound I-14, 6-chloro-3-{[(3-methyl-2-oxo-2,3-dihydro-1,3-benzoxazol-6-yl)amino]methyl}-1,2-dihydroquinolin-2-one], the IC50 was over 10 µM.

In the case of `O=c1[nH]c2ccc(Cl)cc2cc1CNc1cccc2ccncc12` [Compound I-15, 6-chloro-3-{[(isoquinolin-8-yl)amino]methyl}-1,2-dihydroquinolin-2-one], the concentration for half-maximal inhibition (IC50) was over 10 µM.

On to `O=c1[nH]c2ccc(Cl)cc2cc1CNc1cccc2c1OCCC2` [Compound I-16, 6-chloro-3-{[(3,4-dihydro-2H-1-benzopyran-8-yl)amino]methyl}-1,2-dihydroquinolin-2-one], for which the concentration for half-maximal inhibition (IC50) was over 10 µM.

As for `COc1cc2c(cc1NCc1cc3cc(Cl)ccc3[nH]c1=O)NC(=O)CC2` [Compound I-17, 6-chloro-3-{[(6-methoxy-2-oxo-1,2,3,4-tetrahydroquinolin-7-yl)amino]methyl}-1,2-dihydroquinolin-2-one], the 50% inhibitory concentration (IC50) was over 10 µM.

Turning to `O=C1CCc2ccc(NCc3cc4cc(Cl)ccc4[nH]c3=O)cc2N1` [Compound I-18, 6-chloro-3-{[(2-oxo-1,2,3,4-tetrahydroquinolin-7-yl)amino]methyl}-1,2-dihydroquinolin-2-one], the IC50 was over 10 µM.

Consider `Cc1n[nH]c2cc(NCc3cc4cc(Cl)ccc4[nH]c3=O)ccc12` [Compound I-19, 6-chloro-3-{[(3-methyl-1H-indazol-6-yl)amino]methyl}-1,2-dihydroquinolin-2-one], for which the IC50 is over 10 µM.

As to `O=C1CCc2cc(NCc3cc4cc(Cl)ccc4[nH]c3=O)ccc2N1` [Compound I-20, 6-chloro-3-{[(2-oxo-1,2,3,4-tetrahydroquinolin-6-yl)amino]methyl}-1,2-dihydroquinolin-2-one], the IC50 fell in the range of 1 to 10 µM.

For `COc1ccc2[nH]c(=O)c(CNc3ccc4sc(C)nc4c3)cc2c1` [Compound I-21, 6-methoxy-3-{[(2-methyl-1,3-benzothiazol-5-yl)amino]methyl}-1,2-dihydroquinolin-2-one], the IC50 was over 10 µM.

For the molecule `O=C1CCCc2c(NCc3cc4cc(Cl)ccc4[nH]c3=O)cccc21` [Compound I-22, 6-chloro-3-{[(5-oxo-5,6,7,8-tetrahydronaphthalen-1-yl)amino]methyl}-1,2-dihydroquinolin-2-one], the IC50 was over 10 µM.

For `O=c1[nH]c2ccc(Cl)cc2cc1CNc1ccc2nncn2n1` [Compound I-23, 6-chloro-3-[({[1,2,4]triazolo[4,3-b]pyridazin-6-yl}amino)methyl]-1,2-dihydroquinolin-2-one], the IC50 is over 10 µM.

Consider `O=c1[nH]c2ccc(Cl)cc2cc1CNc1ccc2[nH]cnc2c1` [Compound I-24, 3-{[(1H-1,3-benzodiazol-5-yl)amino]methyl}-6-chloro-1,2-dihydroquinolin-2-one], for which the IC50 is over 10 µM.

`O=c1[nH]c2ccc(Cl)cc2cc1CNc1ccc2cn[nH]c2c1` [Compound I-25, 6-chloro-3-{[(1H-indazol-6-yl)amino]methyl}-1,2-dihydroquinolin-2-one]: the IC50 was over 10 µM.

With `O=c1[nH]c2ccc(Cl)cc2cc1CNc1ccc2ncsc2c1` [Compound I-26, 3-{[(1,3-benzothiazol-6-yl)amino]methyl}-6-chloro-1,2-dihydroquinolin-2-one], the 50% inhibitory concentration (IC50) was over 10 µM.

In the case of `O=c1[nH]c2ccc(Cl)cc2cc1CNc1ccc2ncccc2c1` [Compound I-27, 6-chloro-3-{[(quinolin-6-yl)amino]methyl}-1,2-dihydroquinolin-2-one], the IC50 was over 10 µM.

For the molecule `O=c1[nH]c2ccc(Cl)cc2cc1CNc1ccc2[nH]c(C(F)(F)F)nc2c1` [Compound I-28, 6-chloro-3-({[2-(trifluoromethyl)-1H-1,3-benzodiazol-5-yl]amino}methyl)-1,2-dihydroquinolin-2-one], the IC50 was over 10 µM.

On to `O=c1[nH]c2ccc(Cl)cc2cc1CNc1ccc2scnc2c1` [Compound I-29, 3-{[(1,3-benzothiazol-5-yl)amino]methyl}-6-chloro-1,2-dihydroquinolin-2-one], for which the IC50 is over 10 µM.

Regarding `COc1ccc2[nH]c(=O)c(CNc3ccc4c(c3)OCCO4)cc2c1` [Compound I-30, 3-{[(2,3-dihydro-1,4-benzodioxin-6-yl)amino]methyl}-6-methoxy-1,2-dihydroquinolin-2-one], the half-inhibitory concentration (IC50) was over 10 µM.

As for `Cc1cc2cc(CNc3ccc4cn[nH]c4c3)c(=O)[nH]c2cc1C` [Compound I-31, 3-{[(1H-indazol-6-yl)amino]methyl}-6,7-dimethyl-1,2-dihydroquinolin-2-one], the IC50 is over 10 µM.

Regarding `Cc1ccc2cc(NCc3cc4cc(Cl)ccc4[nH]c3=O)ccc2n1` [Compound I-32, 6-chloro-3-{[(2-methylquinolin-6-yl)amino]methyl}-1,2-dihydroquinolin-2-one], the half-maximal inhibitory concentration (IC50) was over 10 µM.

For the molecule `O=c1[nH]c2ccc(Cl)cc2cc1CNc1ccc2c(c1)OCCO2` [Compound I-33, 6-chloro-3-{[(2,3-dihydro-1,4-benzodioxin-6-yl)amino]methyl}-1,2-dihydroquinolin-2-one], the concentration for half-maximal inhibition (IC50) is over 10 µM.

On to `COc1ccc2[nH]c(=O)c(CNc3ccc4cn[nH]c4c3)cc2c1` [Compound I-34, 3-{[(1H-indazol-6-yl)amino]methyl}-6-methoxy-1,2-dihydroquinolin-2-one], for which the concentration for half-maximal inhibition (IC50) was over 10 µM.

Consider `COc1ccc2[nH]c(=O)c(CNc3ccc4nc(C)ccc4c3)cc2c1` [Compound I-35, 6-methoxy-3-{[(2-methylquinolin-6-yl)amino]methyl}-1,2-dihydroquinolin-2-one], for which the IC50 was over 10 µM.

On to `COc1ccc2[nH]c(=O)c(CNc3ccc4ncsc4c3)cc2c1` [Compound I-36, 3-{[(1,3-benzothiazol-6-yl)amino]methyl}-6-methoxy-1,2-dihydroquinolin-2-one], for which the IC50 is over 10 µM.

On to `Cc1ccc2cc(NCc3cc4cc(C)c(C)cc4[nH]c3=O)ccc2n1` [Compound I-37, 6,7-dimethyl-3-{[(2-methylquinolin-6-yl)amino]methyl}-1,2-dihydroquinolin-2-one], for which the IC50 was over 10 µM.

For `O=c1[nH]c2ccc(Cl)cc2cc1CNc1ccc2[nH]ncc2c1` [Compound I-38, 6-chloro-3-{[(1H-indazol-5-yl)amino]methyl}-1,2-dihydroquinolin-2-one], the IC50 is over 10 µM.

In the case of `COc1ccc2[nH]c(=O)c(CNc3ccc4ncccc4c3)cc2c1` [Compound I-39, 6-methoxy-3-{[(quinolin-6-yl)amino]methyl}-1,2-dihydroquinolin-2-one], the IC50 was over 10 µM.
